Assays:
Cytochrome P450 2A6 [1] = target: T1, Cytochrome P450 2A6 (Homo sapiens, UniProt P11509); experiment: Effect on coumarin 7-hydroxylation by human Cytochrome P-450 2A6
T1 sequence (P11509 whole entry): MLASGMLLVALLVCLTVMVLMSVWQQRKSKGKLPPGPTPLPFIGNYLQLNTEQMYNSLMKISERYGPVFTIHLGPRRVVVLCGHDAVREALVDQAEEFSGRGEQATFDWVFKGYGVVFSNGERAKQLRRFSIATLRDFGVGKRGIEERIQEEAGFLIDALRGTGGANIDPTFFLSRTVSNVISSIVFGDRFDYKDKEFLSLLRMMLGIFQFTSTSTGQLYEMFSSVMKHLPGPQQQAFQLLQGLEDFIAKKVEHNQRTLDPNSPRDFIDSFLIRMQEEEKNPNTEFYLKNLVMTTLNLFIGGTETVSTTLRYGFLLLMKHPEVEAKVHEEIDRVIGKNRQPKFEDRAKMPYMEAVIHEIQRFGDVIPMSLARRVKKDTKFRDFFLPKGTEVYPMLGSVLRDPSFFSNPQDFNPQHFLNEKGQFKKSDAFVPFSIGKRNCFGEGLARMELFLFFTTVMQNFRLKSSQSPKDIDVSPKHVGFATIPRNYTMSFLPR

CYP2D6 versus CYP2A6 = experiment: Ratio of inhibition of human cytochrome P-450 2D6 to 2A6 was determined; Expressed as IC50(CYP2D6)/IC50(CYP2A6)
Cytochrome P450 2B6 = target: T2, Cytochrome P450 2B6 (Homo sapiens, UniProt P20813); experiment: Inhibitory concentration value against human cytochrome P-450 2B6
T2 sequence (P20813 whole entry): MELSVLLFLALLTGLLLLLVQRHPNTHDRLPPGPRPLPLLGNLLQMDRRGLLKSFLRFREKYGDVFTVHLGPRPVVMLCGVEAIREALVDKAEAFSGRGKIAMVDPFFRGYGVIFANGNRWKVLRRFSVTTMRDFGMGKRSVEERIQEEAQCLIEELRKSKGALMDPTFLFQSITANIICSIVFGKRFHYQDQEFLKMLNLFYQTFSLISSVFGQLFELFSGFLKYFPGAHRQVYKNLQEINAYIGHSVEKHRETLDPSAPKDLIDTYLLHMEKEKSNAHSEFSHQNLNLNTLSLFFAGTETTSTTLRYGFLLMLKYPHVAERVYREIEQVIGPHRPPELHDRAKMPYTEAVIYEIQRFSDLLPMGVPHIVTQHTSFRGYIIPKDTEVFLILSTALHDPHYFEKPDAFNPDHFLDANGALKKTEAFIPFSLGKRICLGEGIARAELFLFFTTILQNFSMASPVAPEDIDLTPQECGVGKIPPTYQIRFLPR

CYP3A4 versus CYP2A6 = experiment: Ratio of inhibition of human cytochrome P-450 3A4 to 2A6 was determined; Expressed as IC50(CYP3A4)/IC50(CYP2A6)
Cytochrome P450 2A6 [2] = target: T1, Cytochrome P450 2A6; experiment: Inhibitory concentration value against human cytochrome P-450 2A6
Cytochrome P450 2C9 = Cytochrome P450 2C9 (Homo sapiens, UniProt P11712); experiment: Inhibitory concentration against human cytochrome P-450 2C9
Chain of Cytochrome P450 2C9 (P11712 whole entry): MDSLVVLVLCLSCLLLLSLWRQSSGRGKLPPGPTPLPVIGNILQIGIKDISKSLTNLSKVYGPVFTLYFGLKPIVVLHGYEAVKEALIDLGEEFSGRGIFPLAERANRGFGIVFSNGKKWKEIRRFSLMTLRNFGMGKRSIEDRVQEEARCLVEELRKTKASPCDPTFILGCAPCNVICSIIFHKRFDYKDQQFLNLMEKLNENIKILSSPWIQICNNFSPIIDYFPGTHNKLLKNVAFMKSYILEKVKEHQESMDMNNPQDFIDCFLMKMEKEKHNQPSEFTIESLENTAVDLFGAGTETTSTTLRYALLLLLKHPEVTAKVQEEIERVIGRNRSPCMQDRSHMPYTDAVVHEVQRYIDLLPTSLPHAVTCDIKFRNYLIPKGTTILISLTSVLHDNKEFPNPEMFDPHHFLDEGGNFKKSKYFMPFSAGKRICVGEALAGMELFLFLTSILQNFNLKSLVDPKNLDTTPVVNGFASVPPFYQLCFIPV

Cytochrome P450 2E1 = Cytochrome P450 2E1 (Homo sapiens, UniProt P05181); experiment: Inhibitory concentration value against human cytochrome P-450 2E1
Chain of Cytochrome P450 2E1 (P05181 whole entry): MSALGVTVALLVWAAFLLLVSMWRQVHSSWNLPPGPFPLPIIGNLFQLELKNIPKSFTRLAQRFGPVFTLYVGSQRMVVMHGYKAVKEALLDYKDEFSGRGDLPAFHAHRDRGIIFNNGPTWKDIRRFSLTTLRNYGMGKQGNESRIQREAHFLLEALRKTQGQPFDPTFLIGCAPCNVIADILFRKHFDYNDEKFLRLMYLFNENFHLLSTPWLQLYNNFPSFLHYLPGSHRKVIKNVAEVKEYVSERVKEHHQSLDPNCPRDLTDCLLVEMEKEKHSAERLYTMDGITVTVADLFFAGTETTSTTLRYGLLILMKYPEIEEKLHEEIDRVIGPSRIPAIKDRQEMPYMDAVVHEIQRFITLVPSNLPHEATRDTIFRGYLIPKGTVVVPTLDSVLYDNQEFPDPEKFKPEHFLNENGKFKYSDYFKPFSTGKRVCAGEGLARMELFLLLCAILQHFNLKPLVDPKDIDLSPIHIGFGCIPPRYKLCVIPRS

Cytochrome P450 2D6 = Cytochrome P450 2D6 (Homo sapiens, UniProt P10635); experiment: Inhibitory concentration value against human cytochrome P-450 2D6
Chain of Cytochrome P450 2D6 (P10635 whole entry): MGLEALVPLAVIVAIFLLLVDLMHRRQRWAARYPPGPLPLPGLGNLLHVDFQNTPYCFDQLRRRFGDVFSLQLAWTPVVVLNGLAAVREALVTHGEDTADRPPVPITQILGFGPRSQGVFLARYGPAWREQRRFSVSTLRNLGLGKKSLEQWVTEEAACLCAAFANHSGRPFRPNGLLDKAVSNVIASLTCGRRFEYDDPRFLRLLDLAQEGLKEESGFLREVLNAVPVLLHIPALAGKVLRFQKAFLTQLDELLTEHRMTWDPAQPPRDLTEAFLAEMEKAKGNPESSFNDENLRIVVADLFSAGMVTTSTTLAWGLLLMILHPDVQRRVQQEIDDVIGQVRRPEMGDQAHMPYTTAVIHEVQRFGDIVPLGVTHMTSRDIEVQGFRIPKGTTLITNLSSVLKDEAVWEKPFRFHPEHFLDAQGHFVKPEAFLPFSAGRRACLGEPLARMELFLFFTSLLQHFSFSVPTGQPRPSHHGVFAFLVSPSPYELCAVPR

CYP2C19 versus CYP2A6 = experiment: Ratio of inhibition of human cytochrome P-450 2C19 to 2A6 was determined; Expressed as IC50(CYP2C19)/IC50(CYP2A6)
Cytochrome P450 2C19 = Cytochrome P450 2C19 (Homo sapiens, UniProt P33261); experiment: Inhibitory concentration value against human cytochrome P-450 2C19
Chain of Cytochrome P450 2C19 (P33261 whole entry): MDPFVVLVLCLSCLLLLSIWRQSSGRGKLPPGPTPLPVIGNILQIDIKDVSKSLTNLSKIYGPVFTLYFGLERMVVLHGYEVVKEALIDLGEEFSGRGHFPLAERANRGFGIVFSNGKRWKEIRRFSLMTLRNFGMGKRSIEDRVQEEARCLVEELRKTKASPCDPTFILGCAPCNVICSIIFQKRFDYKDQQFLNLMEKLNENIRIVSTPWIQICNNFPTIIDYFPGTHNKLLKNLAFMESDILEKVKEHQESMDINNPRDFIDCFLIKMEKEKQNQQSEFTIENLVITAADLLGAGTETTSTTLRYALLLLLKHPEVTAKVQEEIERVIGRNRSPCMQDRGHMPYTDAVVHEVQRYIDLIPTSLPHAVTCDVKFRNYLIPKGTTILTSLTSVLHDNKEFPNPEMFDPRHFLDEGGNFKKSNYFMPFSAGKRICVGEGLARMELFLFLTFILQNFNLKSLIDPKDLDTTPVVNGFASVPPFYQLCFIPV

CYP2C9 versus CYP2A6 = experiment: Ratio of inhibition of human cytochrome P-450 2C9 to 2A6 was determined; Expressed as IC50(CYP2C9)/IC50(CYP2A6)
Cytochrome P450 3A4 = Cytochrome P450 3A4 (Homo sapiens, UniProt P08684); experiment: Inhibitory concentration value against human cytochrome P-450 3A4
Chain of Cytochrome P450 3A4 (P08684 whole entry): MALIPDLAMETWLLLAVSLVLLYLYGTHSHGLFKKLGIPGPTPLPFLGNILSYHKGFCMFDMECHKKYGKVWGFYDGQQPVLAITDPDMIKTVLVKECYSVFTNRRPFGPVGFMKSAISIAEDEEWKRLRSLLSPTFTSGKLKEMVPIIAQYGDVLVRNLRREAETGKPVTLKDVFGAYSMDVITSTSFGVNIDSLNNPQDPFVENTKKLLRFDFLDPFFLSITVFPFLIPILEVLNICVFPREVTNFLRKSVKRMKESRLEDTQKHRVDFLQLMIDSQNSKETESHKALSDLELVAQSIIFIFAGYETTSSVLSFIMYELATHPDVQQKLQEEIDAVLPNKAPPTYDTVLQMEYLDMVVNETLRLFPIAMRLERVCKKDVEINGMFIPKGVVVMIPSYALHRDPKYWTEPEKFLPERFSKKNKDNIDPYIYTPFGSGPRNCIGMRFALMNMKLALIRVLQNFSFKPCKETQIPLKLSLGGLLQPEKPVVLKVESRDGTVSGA

CYP2E1 versus CYP2A6 = experiment: Ratio of inhibition of human cytochrome P-450 2E1 to 2A6 was determined; Expressed as IC50(CYP2E1)/IC50(CYP2A6)
CYP2B6 versus CYP2A6 = experiment: Ratio of inhibition of human cytochrome P-450 2B6 to 2A6 was determined; Expressed as IC50(CYP2B6)/IC50(CYP2A6)

SMILES	Ki (Cytochrome P450 2A6 [1]) [µM]	IC50 (Cytochrome P450 2B6) [µM]	IC50 (Cytochrome P450 2C9) [µM]	IC50 (Cytochrome P450 2E1) [µM]	IC50 (Cytochrome P450 2D6) [µM]	IC50 (Cytochrome P450 2C19) [µM]	also measured
CNCC#Cc1cccnc1	0.89						
Clc1ccc(-c2cccnc2)cn1	6.3						
NCc1ccc(-c2cccnc2)o1							selectivity ratio (CYP2D6 versus CYP2A6): 4.1
Cc1ccsc1-c1cncc(Br)c1	1.5						
O/N=C\c1ccc(-c2cccnc2)o1	13.7	128	398	> 400	> 400	279	selectivity ratio (CYP2D6 versus CYP2A6): > 95; selectivity ratio (CYP3A4 versus CYP2A6): > 95; IC50 (Cytochrome P450 2A6 [2]): 4.2 µM; selectivity ratio (CYP2C19 versus CYP2A6): 66; selectivity ratio (CYP2C9 versus CYP2A6): 94; IC50 (Cytochrome P450 3A4): > 400 µM
Brc1cncc(-c2ccsc2)c1	4.5						
O/N=C/c1ccc(-c2cccnc2)s1	0.24	214	223	4.2	191	37.2	selectivity ratio (CYP2E1 versus CYP2A6): 3; selectivity ratio (CYP2D6 versus CYP2A6): 136; selectivity ratio (CYP3A4 versus CYP2A6): 9.3; IC50 (Cytochrome P450 2A6 [2]): 1.4 µM; selectivity ratio (CYP2C19 versus CYP2A6): 27; selectivity ratio (CYP2B6 versus CYP2A6): 153; selectivity ratio (CYP2C9 versus CYP2A6): 159
O/N=C/c1ccc(-c2cccnc2)o1	0.71	372	86.2	> 400	> 400	118	selectivity ratio (CYP2C19 versus CYP2A6): 1.4; selectivity ratio (CYP2C9 versus CYP2A6): 1; IC50 (Cytochrome P450 3A4): > 400 µM
N=Cc1ccc(-c2cccnc2)s1.N=Cc1ccc(-c2cccnc2)s1.NCc1ccc(-c2cccnc2)s1		256		77.5	197		IC50 (Cytochrome P450 2A6 [2]): 3.7 µM; IC50 (Cytochrome P450 3A4): 77.5 µM
O=Cc1ccc(-c2cccnc2)o1	≥ 67						
c1cncc(-c2ccc(CNCc3ccc(-c4cccnc4)s3)s2)c1							IC50 (Cytochrome P450 3A4): > 400 µM
Cc1cn(-c2cccnc2)cn1	0.17	> 300	> 300	57.9	297	> 300	IC50 (Cytochrome P450 2A6 [2]): 1 µM
NCc1ccc(-c2cccnc2)cc1	1.4						
Fc1ccc(-c2ccsc2)cn1	0.97	72.1	> 400	7.2	199	182	selectivity ratio (CYP2E1 versus CYP2A6): 1.2; selectivity ratio (CYP2D6 versus CYP2A6): 34; selectivity ratio (CYP3A4 versus CYP2A6): 20; IC50 (Cytochrome P450 2A6 [2]): 5.8 µM; selectivity ratio (CYP2C19 versus CYP2A6): 31; selectivity ratio (CYP2B6 versus CYP2A6): 12; selectivity ratio (CYP2C9 versus CYP2A6): > 69; IC50 (Cytochrome P450 3A4): 114 µM
Cc1cccnc1-c1cccnc1	43.7						
c1cncc(-n2cnnn2)c1	≥ 67						
O/N=C/c1ccc(-c2cccnc2)o1.O/N=C\c1ccc(-c2cccnc2)o1					> 400		
CNc1ccc(-c2cccnc2)s1	0.59	6.8	2.1	31.1	14.4	3.2	selectivity ratio (CYP2E1 versus CYP2A6): 8.9; selectivity ratio (CYP2D6 versus CYP2A6): 4.1; selectivity ratio (CYP3A4 versus CYP2A6): 2; IC50 (Cytochrome P450 2A6 [2]): 3.5 µM; selectivity ratio (CYP2C19 versus CYP2A6): 0.9; selectivity ratio (CYP2B6 versus CYP2A6): 1.9; selectivity ratio (CYP2C9 versus CYP2A6): 0.6; IC50 (Cytochrome P450 3A4): 6.3 µM
Cc1ccc(-c2cccnc2)nc1	2.7						

SMILES	Ki (Cytochrome P450 2A6 [1]) [µM]	IC50 (Cytochrome P450 2B6) [µM]	IC50 (Cytochrome P450 2C9) [µM]	IC50 (Cytochrome P450 2E1) [µM]	IC50 (Cytochrome P450 2D6) [µM]	IC50 (Cytochrome P450 2C19) [µM]	also measured
O=[N+]([O-])c1ccc(-c2cccnc2)s1	19.7						
c1cncc(-c2cccs2)c1		70.8	99.2	4.1	> 400	178	
Cc1ccsc1-c1ccc(F)nc1	0.21						
COc1ccc(-c2cscc2C)cn1	6.6						
c1cncc(-c2cncnc2)c1	27.4						
c1cncc(-c2cccnc2)c1			> 300	> 300	> 300	> 300	
COc1ccc(-c2sccc2C)cn1	≥ 67						
Cc1ccnc(-c2cccnc2)c1	5.1						
Cc1nc(-c2cccnc2)c[nH]1	6.2						
Cn1cnc(-c2cccnc2)c1	0.13	146	79.5	4.1	217	122	selectivity ratio (CYP2D6 versus CYP2A6): 289
c1cncc(-c2ccsc2)c1	0.22	59.1	96.3	> 400	248	111	selectivity ratio (CYP2E1 versus CYP2A6): > 286; selectivity ratio (CYP2D6 versus CYP2A6): 177; selectivity ratio (CYP3A4 versus CYP2A6): 400; IC50 (Cytochrome P450 2A6 [2]): 1.4 µM; selectivity ratio (CYP2C19 versus CYP2A6): 81; selectivity ratio (CYP2B6 versus CYP2A6): 42; selectivity ratio (CYP2C9 versus CYP2A6): 69; IC50 (Cytochrome P450 3A4): 56.9 µM
CCn1cnc(-c2cccnc2)c1	0.52	83.1	75.2	80	344	46.4	selectivity ratio (CYP2E1 versus CYP2A6): 26; selectivity ratio (CYP2D6 versus CYP2A6): 111; selectivity ratio (CYP3A4 versus CYP2A6): 26; selectivity ratio (CYP2C19 versus CYP2A6): 15; selectivity ratio (CYP2B6 versus CYP2A6): 26; selectivity ratio (CYP2C9 versus CYP2A6): 24; IC50 (Cytochrome P450 3A4): 79.2 µM
Cc1cncc(-c2cscc2C)c1	0.17						
CC(=O)c1ccc(-c2cccnc2)s1	1.4	217	98.2	> 400	387	62.7	selectivity ratio (CYP2E1 versus CYP2A6): > 46; selectivity ratio (CYP2D6 versus CYP2A6): 45; selectivity ratio (CYP3A4 versus CYP2A6): 3.1; selectivity ratio (CYP2C19 versus CYP2A6): 7; selectivity ratio (CYP2B6 versus CYP2A6): 25; selectivity ratio (CYP2C9 versus CYP2A6): 11
Cc1cccc(-c2cccnc2)n1	9.8						
c1cncc(-c2nccs2)c1	3.2						
Cc1cscc1-c1ccc(F)nc1			> 400				
CN1CCC[C@H]1c1cccnc1 [NICOTINE]	4.4						
c1ccc(-c2cccnc2)nc1 [[2,3'']Bipyridinyl]	7.7						

— ChEMBL document CHEMBL1145288, “5-substituted, 6-substituted, and unsubstituted 3-heteroaromatic pyridine analogues of nicotine as selective inhibitors of cytochrome P-450 2A6” (J Med Chem, 2005)
